Article PMC7911295, “Metabolism of Zearalenone in the Rumen of Dairy Cows with and without Application of a Zearalenone-Degrading Enzyme” (Toxins, 2021)
Like-named read-outs stand apart in the source and are kept apart here.

How the values were obtained:
[1] = Feeding trial in rumen-fistulated dairy cows: ZEN and ZEN metabolites in rumen fluid from reticulum, dorsal mat layer and ventral sac; type: in vivo, Holstein Friesian cows; conditions: for Traces still detected at (time after administration of ZEN-contaminated concentrate): time point 0 h of the ZEN+ZenA treatment; for Tmax: female, Holstein Friesian, bovine, in vivo, po, 5 mg, read-out: Time of peak concentration post-administration (converted); for Percentage of concentration relative to the sum of ZEN and ZEN metabolite concentrations: reticulorumen; for Time to elimination: ventral sac and reticulum
Text: (§1) Ruminal metabolism of ZEN with and without supplementation of ZenA was investigated in four rumen-fistulated Holstein Friesian cows (sex: female; age at start: 5.9 ± 1.0 years; body weight at start: 863 ± 65 kg; physiological stage: non-lactating; general health: good, non-gestating; identification procedure: ear tag 4-digit code). The cows were part of the dairy herd of VetFarm (Teaching and Research Farm) of the University of Veterinary Medicine Vienna in Kremesberg, Austria. All procedures related to these experiments were performed according to Austrian law and following the European Guidelines for the Care and Use of Animals for Research Purpose. The animal experiment was approved by ethics and animal welfare commission of the University of Veterinary Medicine, Vienna and the Austrian Federal Ministry of Education, Science and Research (68.205/0156-WF/V/3b/2017, 30.08.2017).
(§2) In our trial setup, each animal was considered an experimental unit (n = 4). Each animal received the same treatment and served as its own control. First, each animal received ZEN-contaminated concentrate feed. Following a 48-h washout period, each animal received ZEN-contaminated concentrate feed supplemented with ZenA. In brief, for acclimatization, on the day prior to the start of the feeding trial, each animal was manually fed 4 × 500 g of control concentrate (Table 4 and Table 5). Thereafter, animals were manually fed (i) 1 × 500 g concentrate contaminated with ZEN and 3 × 500 g control concentrate on experimental day 1 (ZEN treatment), (ii) 4 × 500 g control concentrate on day 2 (ZEN washout), (iii) 1 × 500 g ZEN-contaminated concentrate supplemented with ZenA and 3 × 500 g control concentrate on day 3 (ZEN+ZenA treatment), and (iv) 4 × 500 g control concentrate on day 4 (ZEN+ZenA washout; Table 6). Animals were treated and assessed in the same random order at each experimental time point.
For production of ZEN-contaminated concentrate feed, lyophilizate of ZEN with maltodextrin as a carrier was prepared. To this end, in three parallel preparations, 50 mg ZEN (Fermentek, Jerusalem, Israel) was dissolved in 1 L RO water (pH 12; adjusted with NaOH) using a magnetic stirrer set to 400 rpm and 37 °C for 20 min. Subsequently, 100 g maltodextrin DE19 (Agrana, Vienna, Austria) was added and dissolved by stirring (400 rpm) at room temperature for 10 min. The solution was lyophilized. Lyophilizate was mixed into concentrate feed at an inclusion rate of 2%. The final concentration of ZEN in feed was aimed to be 10 mg/kg and was verified using HPLC-MS/MS analysis as described below. For production of ZEN-contaminated, ZenA-supplemented concentrate, a zearalenone hydrolase ZenA preparation (ZENzyme®; EC 3.1.1.-; BIOMIN Holding GmbH, Getzersdorf, Austria) was mixed into ZEN-contaminated concentrate to achieve an activity of 128 U/kg feed. Same as in the in vitro trial, 1 U of ZenA was defined as the enzyme activity that hydrolyzes 1 μmol ZEN per minute from 15.71 µM ZEN in Teorell Stenhagen buffer adjusted to pH 7.5 containing 0.1 mg/mL bovine serum albumin at 37 °C.
On days 1 and 3 of the trial (ZEN and ZEN+ZenA treatment, respectively), ruminal digesta samples were taken from reticulum, ventral sac and dorsal mat layer (Figure 3) immediately before concentrate feeding (0 h), as well as 15 min, 1 h, 2 h, 4 h, 7 h and 10 h after concentrate feeding (Table 6). On days 2 and 4 of the trial (washout days), ruminal digesta samples were taken immediately before first concentrate feeding (0 h), as well as 10 h after first concentrate feeding (Table 6). Ruminal digesta samples (10 mL) were taken via a rumen fistula from reticulum and ventral sac (10 cm above the bottom of the rumen) using a pump as described previously. Samples were taken from the dorsal mat layer 20 cm below the gas phase and rumen fluid was obtained by manually squeezing the samples as described previously. Samples were mixed 1:2 with acetonitrile by vortexing. […]

[2] = Feeding trial in rumen-fistulated dairy cows: ZEN and ZEN metabolites in feces; type: in vivo, Holstein Friesian cows; conditions: feces
Text: as §1, §2
On days 1 and 3 of the experiment, feces samples were taken from the rectum immediately before concentrate feeding (0 h), as well as 10 h after concentrate feeding (Table 6) and stored at −20 °C. Aliquots (500 mg) of thoroughly homogenized feces samples were extracted for HPLC-MS/MS analysis according to the method described by Binder and coworkers.
HPLC-MS/MS analysis of ZEN, α-ZEL, β-ZEL, HZEN and DHZEN in rumen fluid and feces was performed as described for the in vitro rumen fermentation experiment (see section “In Vitro Rumen Fermentation Experiment”, subsection “Analysis of ZEN and its Metabolites”), with the following modifications. Chromatographic separation was performed with a flow rate of 0.6 mL/min, a duration of 4 min and an injection volume was 1 µL. The gradient started at 30% B which was held for 0.3 min. Subsequently, the proportion of B was increased to 80% from 0.3 to 2 min, and increased to 100% from 2 to 2.1 min. […] LODs for ZEN, α-ZEL, β-ZEL, HZEN and DHZEN in rumen fluid were 2.83 nmol/L (0.9 µg/L), 2.81 nmol/L (0.9 µg/L), 2.81 nmol/L (0.9 µg/L), 2.68 nmol/L (0.9 µg/L) and 10.27 nmol/L (3 µg/L), respectively. LOQs for ZEN, α-ZEL, β-ZEL, HZEN and DHZEN in rumen fluid were 9.43 nmol/L (3 µg/L), 9.37 nmol/L (3 µg/L), 9.37 nmol/L (3 µg/L), 8.93 nmol/L (3 µg/L) and 30.81 nmol/L (9 µg/L), respectively. LODs for ZEN, α-ZEL, β-ZEL, HZEN and DHZEN in feces were 0.03 nmol/g (8.4 ng/g), 0.03 nmol/g (8.4 ng/g), 0.03 nmol/g (8.4 ng/g), 0.03 nmol/g (8.4 ng/g) and 0.10 nmol/g (28 ng/g), respectively. LOQs for ZEN, α-ZEL, β-ZEL, HZEN and DHZEN in feces were 0.09 nmol/g (28 ng/g), 0.09 nmol/g (28 ng/g), 0.09 nmol/g (28 ng/g), 0.08 nmol/g (28 ng/g) and 0.29 nmol/g (84 ng/g), respectively.

estrogen receptors = test system: estrogen receptors; set-up: method as in doi:10.2903/j.efsa.2016.4425; conditions: cited from earlier work
[3] = dorsal mat layer, ZEN treatment
[4] = ZEN treatment, 15 min after feeding, from median of 3 locations
[5] = reticulum and ventral sac, ZEN treatment
[6] = ZEN+ZenA treatment, 0 h (48 h after ZEN treatment)

## C[C@H]1CCCC(=O)CCC/C=C/c2cc(O)cc(O)c2C(=O)O1 [ZEN, zearalenone]
[1]; [3]
  Low concentrations still detected at (time after concentrate feeding): 34 h
  Tmax: 1 h
[1]; dorsal mat layer
  Traces still detected at (time after administration of ZEN-contaminated concentrate): 48 h
[1]; reticulum, ZEN treatment (5 mg ZEN oral)
  Tmax: 0.25 h
[1]; ventral sac, ZEN treatment
  Tmax: 1 h
[1]; [4]
  Percentage of concentration relative to the sum of ZEN and ZEN metabolite concentrations: 100.0%
[1]; ZEN treatment, 1 h
  Percentage of concentration relative to the sum of ZEN and ZEN metabolite concentrations: 84.8%
[1]; ZEN treatment, 4 h
  Percentage of concentration relative to the sum of ZEN and ZEN metabolite concentrations: 84.1%
[1]; ZEN treatment, 7 h
  Percentage of concentration relative to the sum of ZEN and ZEN metabolite concentrations: 78.7%
[1]; ZEN treatment, 10 h
  Percentage of concentration relative to the sum of ZEN and ZEN metabolite concentrations: 74.4%
[1]; ZEN treatment, 24 h
  Percentage of concentration relative to the sum of ZEN and ZEN metabolite concentrations: 50.2%
[1]; ZEN+ZenA treatment, 15 min
  Percentage of concentration relative to the sum of ZEN and ZEN metabolite concentrations: 5.9%
[1]; ZEN+ZenA treatment, 1 h
  Percentage of concentration relative to the sum of ZEN and ZEN metabolite concentrations: 0.0 (traces) %
[1]; ZEN+ZenA treatment, 4 h
  Percentage of concentration relative to the sum of ZEN and ZEN metabolite concentrations: 0.0 (traces) %
[1]; ZEN+ZenA treatment, 7 h
  Percentage of concentration relative to the sum of ZEN and ZEN metabolite concentrations: 0.0 (traces) %
[1]; ZEN+ZenA treatment, 10 h
  Percentage of concentration relative to the sum of ZEN and ZEN metabolite concentrations: 0.0 (traces) %
[1]; [5]
  Detected up until (time after concentrate feeding): 24 h
[1]; ZEN treatment
  Time to elimination: ≤ 34 h
[2]; ZEN treatment, 10 h
  Percentage of concentration relative to the sum of ZEN and ZEN metabolite concentrations: 11.0%
[2]; [6]
  Percentage of concentration relative to the sum of ZEN and ZEN metabolite concentrations: 15.6%
[2]; ZEN+ZenA treatment, 10 h
  Percentage of concentration relative to the sum of ZEN and ZEN metabolite concentrations: 0.0 (traces) %

## C[C@H]1CCC[C@@H](O)CCC/C=C/c2cc(O)cc(O)c2C(=O)O1 [β-ZEL, β-zearalenol]
Estrogen receptors
  Estrogenic potency relative to ZEN: 0.2 times
[1]; any reticulorumen location, ZEN+ZenA treatment
  Detection in rumen fluid: not detected
[1]; [3]
  Period of detection at low concentrations: 1 to 7 h
[1]; [4]
  Percentage of concentration relative to the sum of ZEN and ZEN metabolite concentrations: 0.0 (traces) %
[1]; ZEN treatment, 1 h
  Percentage of concentration relative to the sum of ZEN and ZEN metabolite concentrations: 7.6%
[1]; ZEN treatment, 4 h
  Percentage of concentration relative to the sum of ZEN and ZEN metabolite concentrations: 0.0 (traces) %
[1]; ZEN treatment, 7 h
  Percentage of concentration relative to the sum of ZEN and ZEN metabolite concentrations: 0.0 (traces) %
[1]; ZEN treatment, 10 h
  Percentage of concentration relative to the sum of ZEN and ZEN metabolite concentrations: 0.0%
[1]; ZEN treatment, 24 h
  Percentage of concentration relative to the sum of ZEN and ZEN metabolite concentrations: 0.0%
[1]; ZEN+ZenA treatment, 15 min
  Percentage of concentration relative to the sum of ZEN and ZEN metabolite concentrations: 0.0%
[1]; ZEN+ZenA treatment, 1 h
  Percentage of concentration relative to the sum of ZEN and ZEN metabolite concentrations: 0.0%
[1]; ZEN+ZenA treatment, 4 h
  Percentage of concentration relative to the sum of ZEN and ZEN metabolite concentrations: 0.0%
[1]; ZEN+ZenA treatment, 7 h
  Percentage of concentration relative to the sum of ZEN and ZEN metabolite concentrations: 0.0%
[1]; ZEN+ZenA treatment, 10 h
  Percentage of concentration relative to the sum of ZEN and ZEN metabolite concentrations: 0.0%
[1]; ZEN treatment
  Time to elimination: ≤ 34 h
[1]; ventral sac, ZEN treatment
  Time of detection at low concentrations: 1 h
[2]; ZEN treatment, 10 h
  Percentage of concentration relative to the sum of ZEN and ZEN metabolite concentrations: 78.1%
[2]; [6]
  Percentage of concentration relative to the sum of ZEN and ZEN metabolite concentrations: 69.0%
[2]; ZEN+ZenA treatment, 10 h
  Percentage of concentration relative to the sum of ZEN and ZEN metabolite concentrations: 59.1%

## C[C@H]1CCC[C@H](O)CCC/C=C/c2cc(O)cc(O)c2C(=O)O1 [α-ZEL, α-zearalenol]
Estrogen receptors
  Estrogenic potency relative to ZEN: 60 times
[1]; [3]
  First detected (time after concentrate feeding): 1 h
  Low concentrations still detected at (time after concentrate feeding): 34 h
[1]; dorsal mat layer
  Traces still detected at (time after administration of ZEN-contaminated concentrate): 48 h
[1]; [4]
  Percentage of concentration relative to the sum of ZEN and ZEN metabolite concentrations: 0.0 (traces) %
[1]; ZEN treatment, 1 h
  Percentage of concentration relative to the sum of ZEN and ZEN metabolite concentrations: 7.6%
[1]; ZEN treatment, 4 h
  Percentage of concentration relative to the sum of ZEN and ZEN metabolite concentrations: 15.9%
[1]; ZEN treatment, 7 h
  Percentage of concentration relative to the sum of ZEN and ZEN metabolite concentrations: 21.3%
[1]; ZEN treatment, 10 h
  Percentage of concentration relative to the sum of ZEN and ZEN metabolite concentrations: 25.6%
[1]; ZEN treatment, 24 h
  Percentage of concentration relative to the sum of ZEN and ZEN metabolite concentrations: 49.8%
[1]; ZEN+ZenA treatment, 15 min
  Percentage of concentration relative to the sum of ZEN and ZEN metabolite concentrations: 0.0 (traces) %
[1]; ZEN+ZenA treatment, 1 h
  Percentage of concentration relative to the sum of ZEN and ZEN metabolite concentrations: 0.0%
[1]; ZEN+ZenA treatment, 4 h
  Percentage of concentration relative to the sum of ZEN and ZEN metabolite concentrations: 0.0%
[1]; ZEN+ZenA treatment, 7 h
  Percentage of concentration relative to the sum of ZEN and ZEN metabolite concentrations: 0.0%
[1]; ZEN+ZenA treatment, 10 h
  Percentage of concentration relative to the sum of ZEN and ZEN metabolite concentrations: 0.0 (traces) %
[1]; [5]
  Detected up until (time after concentrate feeding): 24 h
  First detected (time after concentrate feeding): 0.25 h
[1]; ZEN treatment
  Time to elimination: ≤ 34 h
[1]; ventral sac, ZEN+ZenA treatment
  Detection in rumen fluid: not detected
[2]; ZEN treatment, 10 h
  Percentage of concentration relative to the sum of ZEN and ZEN metabolite concentrations: 10.9%
[2]; [6]
  Percentage of concentration relative to the sum of ZEN and ZEN metabolite concentrations: 15.5%
[2]; ZEN+ZenA treatment, 10 h
  Percentage of concentration relative to the sum of ZEN and ZEN metabolite concentrations: 9.0%
